Source: patent publication US20140328951A1, “Composition for Preventing and Treating Vision Deterioration and Age-Related Macular Degeneration through Retinal Repair Using Ginseng/Red Ginseng Extracts and Ginsenoside” (GBIOMIX. CO., LTD., priority 2011, published 2014)

Columns and labels:
human Bruch's membrane = experiment: Hydraulic conductivity of Bruch's membrane in open-type Ussing chambers; settings: 24 hours incubation
Description: Bruch's samples were mounted in open-type Ussing chambers and perfused with Tris-HCl buffer. Eluted samples (fluid coming through Bruch's membrane) were collected and measured for fluid transport. Control was perfused with Tris-HCl buffer whilst others were perfused with ginseng fractions for 24 hours.
Transport was tested as described in Example 3, and measured after 24 hours incubation with ginsenosides.
Transport was tested as described in Example 3, and measured after 24 hours incubation with 10% red ginseng extract.

[1] = system: Retinal Pigment Epithelium (RPE) of Pig Eyes; experiment: Release of MMPs from RPE of pig eyecups (gelatin zymography); format: cell-based; settings: pig eyecup
Description: Pig whole eyecup preparations of RPE were used in these experiments. Standard buffer for incubations utilised […] supplemented with foetal calf serum and antibiotics. Eyecups were incubated in this basal medium as control and in medium containing ginseng extract. Following a 6-24 hour incubation, the incubating medium was collected and subjected to gelatin zymography to analyse the type and level of MMP species present. In control medium, both pro- and active MMP 2&9 species are released continuously from the RPE (FIG. 7). […] This effect of KRG is conducive for regenerating Bruch's membrane. […]

[2] = 6-24 hour incubation, gelatin zymography, Ginseng extract at 10%

| SMILES | Effect on hydraulic conductivity of human Bruch's membrane (in words) (human Bruch's membrane; 190 ug/ml) | Fold change in hydraulic conductivity over basal (human Bruch's membrane; 190 ug/ml, 5 donors) | Release of active MMP2 from the RPE [1, 2] | Release of pro-MMP2 from the RPE [1, 2] | Release of pro-MMP9 from the RPE [1, 2] | Effect on hydraulic conductivity of human Bruch's membrane (in words) (human Bruch's membrane; 200 ug/ml) | Fold change in hydraulic conductivity over basal (human Bruch's membrane; 200 ug/ml, 1 donor) | Activated HMW1 level [1, 2] | Release of active MMP9 from the RPE [1, 2] | Release of MMPs from the RPE (overall) ([1]; FIG. 7) |
| --- | --- | --- | --- | --- | --- | --- | --- | --- | --- | --- |
| CC(C)=CCC[C@](C)(O[C@@H]1O[C@H](CO)[C@@H](O)[C@H](O)[C@H]1O)[C@H]1CC[C@]2(C)[C@@H]1[C@H](O)C[C@@H]1[C@@]3(C)CC[C@H](O)C(C)(C)[C@@H]3CC[C@]12C [Compound K, 20-O-β-d-glucopyranosyl-20(S)-protopanaxadiol] | increased hydraulic conductivity | 1.45 ± 0.15 | consistently increased | consistently increased | consistently increased |  |  |  |  |  |
| CC(C)=CCC[C@](C)(O[C@@H]1O[C@H](CO[C@@H]2O[C@H](CO)[C@@H](O)[C@H](O)[C@H]2O)[C@@H](O)[C@H](O)[C@H]1O)[C@H]1CC[C@]2(C)[C@@H]1[C@H](O)C[C@@H]1[C@@]3(C)CC[C@H](O[C@@H]4O[C@H](CO)[C@@H](O)[C@H](O)[C@H]4O[C@@H]4O[C@H](CO)[C@@H](O)[C@H](O)[C@H]4O)C(C)(C)[C@@H]3CC[C@]12C [Rb1] |  |  | did increase | did increase | effective in reducing the level of pro-MMP9 | increased | 1.27 | increased activated HMW1 levels | without effect |  |
| CC(C)=CCC[C@](C)(O[C@@H]1O[C@H](CO)[C@@H](O)[C@H](O)[C@H]1O)[C@H]1CC[C@]2(C)[C@@H]1[C@H](O)C[C@@H]1[C@@]3(C)CC[C@H](O)C(C)(C)[C@@H]3[C@@H](O[C@@H]3O[C@H](CO)[C@@H](O)[C@H](O)[C@H]3O)C[C@]12C [Rg1] |  |  |  |  | increased the amount of pro-MMP9 | increased | 1.2 |  |  | without effect |
